# According to publication PMC7442133, “Reduced treatment frequencies with bumped kinase inhibitor 1369 are effective against porcine cystoisosporosis” (International Journal for Parasitology: Drugs and Drug …, 2020):
# Values joined by “and” are separate entries in the source; they are usually repeats but may differ in a detail not shown here. Equal entries are not always repeated. “Also recorded” adds a separate entry of the source.
# Columns and labels:
# [1] = Post-treatment observations for adverse events; format: in vivo, piglets
# Protocol: For both experiments, post-treatment observations for any adverse events such as swelling/bleeding of the iron injection site, inability to stand, walk, suckle or other abnormal behavior, including dyspnoea, vomiting, limping, lateral recumbency, signs of pain, distress or neurological alterations ([Oldham, 1985]), were conducted under blinded conditions by a veterinarian at 2 h, 24 h and 48 h after treatment. In addition, all piglets were observed daily during the course of the studies to ensure good health, and any condition that required veterinary intervention was recorded and addressed.
# [2] = Body weight development of experimentally infected suckling piglets; format: in vivo; details: for BW SD 8 / BW SD 15 / BW SD 22 / BW SD 29 / BW SD 1: SD in brackets; for BW SD 1: before treatment
# C. suis (strain Wien-I) [3] = assay: Oocyst excretion of experimentally infected suckling piglets (autofluorescence, modified McMaster); format: in vivo, Cystoisospora suis; details: for Start of oocyst excretion (study day): controls started SD 8
# C. suis (strain Wien-I) [4] = assay: Fecal score and diarrhea of experimentally infected suckling piglets; format: in vivo, Cystoisospora suis
# [5] = Exp I group A: 1 × 20 mg/kg BW, SD 3 (0 dpi)
# [6] = Exp I group B: 1 × 20 mg/kg BW, SD 5 (2 dpi)
# [7] = Exp I group C: 2 × 20 mg/kg BW, SD 5 & 7 (2 & 4 dpi)
# [8] = Exp II group W: 1 × 20 mg/kg BW, SD 5 (2 dpi)
# [9] = Exp II group X: 1 × 10 mg/kg BW, SD 5 (2 dpi)
# [10] = Exp II group Y: 1 × 5 mg/kg BW, SD 5 (2 dpi)
# [11] = irrespective of time points and frequencies of treatment
# [12] = Exp I group A: 1 × 20 mg/kg BW oral, SD 3 (0 dpi)
# [13] = Exp I group B: 1 × 20 mg/kg BW oral, SD 5 (2 dpi)
# [14] = Exp II group W: 1 × 20 mg/kg BW oral, SD 5 (2 dpi)
# [15] = Exp II group X: 1 × 10 mg/kg BW oral, SD 5 (2 dpi)
# [16] = Exp II group Y: 1 × 5 mg/kg BW oral, SD 5 (2 dpi)
# [17] = single treatment 20 mg/kg BW 2 dpi
# [18] = single treatment 20 mg/kg BW on the day of infection
# [19] = Exp I group C: 2 × 20 mg/kg BW oral, SD 5 & SD 7 (2 & 4 dpi)
smiles,measurement,setting,value
CCOc1ccc2cc(-c3nn(CC4CCN(C)CC4)c4ncnc(N)c34)ccc2n1 [BKI 1369],Treatment-related adverse effects that required veterinary intervention,"[1]; 5, 10 or 20 mg/kg BW, one or two oral doses, whole study period",No piglets showed treatment-related adverse effects; also recorded: without any adverse effects
same,"Visible signs of toxicity, clinically relevant systemic or regional/local responses related to treatment","[1]; treated groups, both experiments",Neither visible signs of toxicity nor clinically relevant systemic or regional/local responses related to treatment were observed
same,BW SD 8,[2]; [5],2604 [283.8] g
same,BW SD 15,[2]; [5],4198.4 [573.9] g
same,BW SD 22,[2]; [5],6082 [750.1] g
same,BW SD 29,[2]; [5],7956 [750.22] g
same,BW SD 1,[2]; [5],1276 [227.4] g
same,"BWG SD 8 to 15 (mean body weight gain, acute phase of infection)","[2]; Exp I group A: 1 × 20 mg/kg BW, SD 3 (0 dpi), control D 1042 g, 20 mg/kg",1594 g and 1594.4 g
same,BW SD 8,[2]; [6],2530.9 [362.3] g
same,BW SD 15,[2]; [6],4292.7 [724.9] g
same,BW SD 22,[2]; [6],5892.7 [1225.6] g
same,BW SD 29,[2]; [6],7721.8 [1710.2] g
same,BW SD 1,[2]; [6],1214.5 [206.9] g
same,"BWG SD 8 to 15 (mean body weight gain, acute phase of infection)","[2]; Exp I group B: 1 × 20 mg/kg BW, SD 5 (2 dpi), control D 1042 g, 20 mg/kg",1762 g and 1761.8 g
same,BW SD 8,[2]; [7],2494.5 [328.9] g
same,BW SD 15,[2]; [7],4267.3 [491.6] g
same,BW SD 22,[2]; [7],5950.9 [619.6] g
same,BW SD 29,[2]; [7],7867.3 [851.9] g
same,BW SD 1,[2]; [7],1163.6 [205.5] g
same,"BWG SD 8 to 15 (mean body weight gain, acute phase of infection)","[2]; Exp I group C: 2 × 20 mg/kg BW, SD 5 & 7 (2 & 4 dpi), control D 1042 g, 20 mg/kg",1773 g and 1772.7 g
same,BW SD 8,[2]; [8],3148.0 [610.4] g
same,BW SD 15,[2]; [8],5140.0 [830.8] g
same,BW SD 22,[2]; [8],6952.0 [1204.0] g
same,BW SD 29,[2]; [8],9242.0 [1250.4] g
same,BW SD 1,[2]; [8],1606.0 [347.4] g
same,"BWG SD 8 to 15 (mean body weight gain, acute phase of infection)","[2]; Exp II group W: 1 × 20 mg/kg BW, SD 5 (2 dpi), control Z 389 g, 20 mg/kg",1992 g and 1992.0 g
same,BW SD 8,[2]; [9],1968.0 [632.7] g
same,BW SD 15,[2]; [9],4606.0 [745.5] g
same,BW SD 22,[2]; [9],6502.0 [1068.4] g
same,BW SD 29,[2]; [9],8752.0 [2465.6] g
same,BW SD 1,[2]; [9],1472.0 [353.0] g
same,"BWG SD 8 to 15 (mean body weight gain, acute phase of infection)","[2]; Exp II group X: 1 × 10 mg/kg BW, SD 5 (2 dpi), control Z 389 g, 10 mg/kg",1638 g and 1638.0 g
same,BW SD 8,[2]; [10],2771.1 [654.5] g
same,BW SD 15,[2]; [10],3891.1 [990.8] g
same,BW SD 22,[2]; [10],5782.2 [1340.1] g
same,BW SD 29,[2]; [10],8055.6 [1626.8] g
same,BW SD 1,[2]; [10],1444.4 [391.1] g
same,"BWG SD 8 to 15 (mean body weight gain, acute phase of infection)","[2]; Exp II group Y: 1 × 5 mg/kg BW, SD 5 (2 dpi), control Z 389 g, 5 mg/kg",1120 g and 1120.0 g
same,Body weight gain compared to control piglets (in words),[2]; [11],significant increase in body weight gain
same,Start of oocyst excretion (study day),C. suis (strain Wien-I) [3]; Exp I group A: 1 × 20 mg/kg BW day of infection,11 SD
same,Mean AUC for OpG,C. suis (strain Wien-I) [3]; [12],4861.8
same,Number of excretion days ± SD (mean duration of oocyst excretion),"C. suis (strain Wien-I) [3]; Exp I group A: 1 × 20 mg/kg BW oral, SD 3 (0 dpi), 20 mg/kg",1 ± 1.6 days and 1 ± 1.56 days
same,Piglets that excreted oocysts,"C. suis (strain Wien-I) [3]; Exp I group A: 1 × 20 mg/kg BW, day of infection",50%
same,Number of piglets that excreted oocysts,"C. suis (strain Wien-I) [3]; Exp I group B: 1 × 20 mg/kg BW 2 dpi, 11 piglets",two
same,Start of oocyst excretion (study day),C. suis (strain Wien-I) [3]; Exp I group B: 1 × 20 mg/kg BW 2 dpi,16 SD
same,Mean AUC for OpG,C. suis (strain Wien-I) [3]; [13],333
same,Number of excretion days ± SD,C. suis (strain Wien-I) [3]; [13],0.45 ± 1.03 days
same,Oocyst excretion (in words),"C. suis (strain Wien-I) [3]; Exp I group C: two doses of 20 mg/kg BW at 2 and 4 dpi, 20 mg/kg",completely suppressed oocyst excretion
same,Number of piglets that excreted oocysts,"C. suis (strain Wien-I) [3]; Exp II group W: 1 × 20 mg/kg BW 2 dpi, 10 piglets, excreted only once on SD 16",one
same,Mean AUC for OpG,C. suis (strain Wien-I) [3]; [14],99.9
same,Number of excretion days ± SD,C. suis (strain Wien-I) [3]; [14],0.1 ± 0.32 days
same,Oocyst excretion (in words),C. suis (strain Wien-I) [3]; Exp II group W: single dose of 20 mg/kg BW 2 dpi,effectively suppressed
same,Mean AUC for OpG,C. suis (strain Wien-I) [3]; [15],20129.85
same,Number of excretion days ± SD (mean duration of oocyst excretion),"C. suis (strain Wien-I) [3]; Exp II group X: 1 × 10 mg/kg BW oral, SD 5 (2 dpi), 10 mg/kg",1.3 ± 2.7 days and 1.3 ± 2.75 days
same,Piglets that excreted oocysts,"C. suis (strain Wien-I) [3]; Exp II group X: 1 × 10 mg/kg BW, 2 dpi",50%
same,Number of piglets that excreted oocysts,C. suis (strain Wien-I) [3]; Exp II group X: single dose of 10 mg/kg BW 2 dpi,5 out of 10
same,Mean AUC for OpG,C. suis (strain Wien-I) [3]; [16],56610
same,Number of excretion days ± SD (mean duration of oocyst excretion),"C. suis (strain Wien-I) [3]; Exp II group Y: 1 × 5 mg/kg BW oral, SD 5 (2 dpi), 5 mg/kg",3.6 ± 1.9 days and 3.6 ± 1.94 days
same,Piglets that excreted oocysts,"C. suis (strain Wien-I) [3]; Exp II group Y: 1 × 5 mg/kg BW, 2 dpi",90%
same,Control of parasitic shedding and diarrhea (in words),C. suis (strain Wien-I) [3]; single application of 5 mg/kg BW 2 dpi,completely failed to control parasitic shedding and diarrhea
same,Piglets in which oocyst excretion was suppressed,C. suis (strain Wien-I) [3]; [17],82%
same,Reduction of quantitative oocyst excretion in those that shed oocysts,C. suis (strain Wien-I) [3]; [17],98.4%
same,Piglets in which oocyst excretion was suppressed,C. suis (strain Wien-I) [3]; [18],50%
same,Reduction of quantitative oocyst excretion in those that shed oocysts,C. suis (strain Wien-I) [3]; [18],95.2%
same,Minimal effective dose against cystoisosporosis,"C. suis (strain Wien-I) [3]; single treatment 2 dpi, piglets",10 mg/kg BW
same,% piglets with diarrhea at least once,C. suis (strain Wien-I) [4]; [12],60%
same,Number of diarrhea days ± SD,C. suis (strain Wien-I) [4]; [12],1.4 ± 1.71 days
same,% piglets with diarrhea at least once,C. suis (strain Wien-I) [4]; [13],18.18%
same,Number of diarrhea days ± SD,C. suis (strain Wien-I) [4]; [13],0.27 ± 0.65 days
same,% piglets with diarrhea at least once,C. suis (strain Wien-I) [4]; [19],27.27%
same,Number of diarrhea days ± SD,C. suis (strain Wien-I) [4]; [19],0.45 ± 0.93 days
same,Mean FS and diarrhea days compared to control piglets (in words),C. suis (strain Wien-I) [4]; Exp I: single dose 20 mg/kg BW at 2 dpi,significantly lower mean FS and fewer diarrhea days
same,Effect on diarrhea (in words),C. suis (strain Wien-I) [4]; Exp I: single dose of 20 mg/kg BW on the day of infection,failed to reduce occurrence of diarrhea
same,Mean FS and diarrhea days compared to control piglets (in words),C. suis (strain Wien-I) [4]; Exp I: two doses 20 mg/kg BW at 2 and 4 dpi,significantly lower mean FS and fewer diarrhea days
same,% piglets with diarrhea at least once,C. suis (strain Wien-I) [4]; [14],10%
same,Number of diarrhea days ± SD,C. suis (strain Wien-I) [4]; [14],0.2 ± 0.63 days
same,% piglets with diarrhea at least once,C. suis (strain Wien-I) [4]; [15],40%
same,Number of diarrhea days ± SD,C. suis (strain Wien-I) [4]; [15],0.5 ± 0.70 days
same,% piglets with diarrhea at least once,C. suis (strain Wien-I) [4]; [16],77.80%
same,Number of diarrhea days ± SD,C. suis (strain Wien-I) [4]; [16],2.6 ± 1.88 days
same,Effect on diarrhea (in words),C. suis (strain Wien-I) [4]; Exp II: 5 mg/kg BW at 2 dpi,completely failed to control diarrhea
same,Effect on diarrhea (in words),C. suis (strain Wien-I) [4]; Exp II: 10 mg/kg BW at 2 dpi,effectively suppressed diarrhea
same,Effect on diarrhea (in words),C. suis (strain Wien-I) [4]; Exp II: 20 mg/kg BW at 2 dpi,effectively suppressed diarrhea
same,Number of diarrhea days compared to control piglets (in words),C. suis (strain Wien-I) [4]; [11],reduced number of diarrhea days
